From ChEMBL document CHEMBL1131581, “4H-1,2,4-Pyridothiadiazine 1,1-dioxides and 2,3-dihydro-4H-1,2, 4-pyridothiadiazine 1,1-dioxides chemically related to diazoxide and cyclothiazide as powerful positive allosteric modulators of (R/S)-2-amino-3-(3-hydroxy-5-methylisoxazol-4-yl)propionic acid receptors: design, synthesis, …” (J Med Chem, 1998)

What was measured:
[1] = biological target: T1, Glutamate receptor ionotropic, AMPA (Rattus norvegicus) (UniProt P19491+P19492+P19493+P19490); test: Concentration of drug giving a 2-fold increase of the magnitude of the current induced by Ionotropic glutamate receptor AMPA (30 uM) and measured in Xenopus Oocytes expressing Rat Cortex AMPA Receptors; type: functional, cell-based
[2] = biological target: T1, Glutamate receptor ionotropic, AMPA (Rattus norvegicus); test: concentration of drug giving a 5-fold increase of the magnitude of the current induced by Ionotropic glutamate receptor AMPA (30 uM) and measured in Xenopus Oocytes expressing Rat Cortex AMPA Receptors; type: functional, cell-based
[3] = Partition coefficient was measured in between 1-octanol and aqueous buffer solution of pH 7.4; type: physicochemical; conditions: 1-octanol/aqueous buffer
Rattus norvegicus [4] = organism: Rattus norvegicus; test: Residual insulin release from rat pancreatic islets incubated in the presence of an insulinotropic […] glucose concentration and at a 50 uM concentration of drug; type: functional
Rattus norvegicus [5] = organism: Rattus norvegicus; test: Effect on duration of the postsynaptic excitatory potentials induced by electric stimulation in rat hippocampal slices; type: functional, Hippocampus
Rattus norvegicus [6] = organism: Rattus norvegicus; test: Effect on amplitude of the postsynaptic excitatory potentials induced by electric stimulation in rat hippocampal slices; type: functional, Hippocampus
[7] = Ratio between the D50 value and the A50 value; type: functional

CCC1NS(=O)(=O)c2cnccc2N1C (centres undefined)
EC2x [1]: 800 µM | EC5X [2]: > 1000 µM

CC1Nc2ccncc2S(=O)(=O)N1 (centres undefined)
logD [3]: 0.13 | EC2x [1]: 500 µM | EC5X [2]: > 1000 µM | RIS (Rattus norvegicus [4]): 93.6%

CCCCCN1CNc2ccncc2S1(=O)=O
EC2x [1]: > 100 µM | EC5X [2]: > 100 µM

O=S1(=O)NCNc2cccnc21
EC2x [1]: 300 µM | EC5X [2]: 1100 µM

CC1=NS(=O)(=O)c2cccnc2N1C
EC2x [1]: 800 µM | EC5X [2]: > 1000 µM

CCN1CN(CC)S(=O)(=O)c2ncccc21
EC2x [1]: 87 µM | EC5X [2]: 220 µM

O=S1(=O)NC(C2CCCCC2)Nc2ccncc21 (centres undefined)
EC2x [1]: > 1000 µM | EC5X [2]: > 1000 µM

CCC(C)NC1=NS(=O)(=O)c2cnccc2N1 (centres undefined)
EC2x [1]: > 1000 µM | EC5X [2]: > 1000 µM | RIS (Rattus norvegicus [4]): 9.4%

COc1ccc(C(=O)N2CCCC2=O)cc1
EC2x [1]: 1440 µM | EC5X [2]: > 3000 µM | D50 (Rattus norvegicus [5]): >2000 µM

O=S1(=O)NCNc2ccncc21
EC2x [1]: > 1000 µM | EC5X [2]: > 1000 µM

CCCCN1CNS(=O)(=O)c2cnccc21
EC2x [1]: 800 µM | EC5X [2]: > 1000 µM

CN1CNc2cccnc2S1(=O)=O
EC2x [1]: 341 µM | EC5X [2]: 766 µM

CC(C)N1CNS(=O)(=O)c2cnccc21
EC2x [1]: 94 µM | EC5X [2]: 237 µM | RIS (Rattus norvegicus [4]): 101%

CCC1Nc2ccncc2S(=O)(=O)N1 (centres undefined)
EC2x [1]: > 1000 µM | EC5X [2]: > 1000 µM

CCC1=NS(=O)(=O)c2cnccc2N1
EC2x [1]: > 1000 µM | EC5X [2]: > 1000 µM

CC1=NS(=O)(=O)c2cnccc2N1
logD [3]: -0.41 | EC2x [1]: > 1000 µM | EC5X [2]: > 1000 µM | RIS (Rattus norvegicus [4]): 100%

CC1=NS(=O)(=O)c2cnccc2N1C
EC2x [1]: 250 µM | EC5X [2]: 800 µM

O=S1(=O)c2cnccc2NCN1c1ccccc1
EC2x [1]: > 100 µM | EC5X [2]: > 100 µM

CC(C)C(C)NC1=NS(=O)(=O)c2cnccc2N1 (centres undefined)
EC2x [1]: > 1000 µM | EC5X [2]: > 1000 µM | RIS (Rattus norvegicus [4]): 8.6%

CCN1CN(C)S(=O)(=O)c2ncccc21
EC2x [1]: 38 µM | EC5X [2]: 96 µM

CC(C)N1CNc2ccncc2S1(=O)=O
EC2x [1]: > 300 µM | EC5X [2]: > 300 µM

CCCNC1=NS(=O)(=O)c2cnccc2N1
EC2x [1]: > 1000 µM | EC5X [2]: > 1000 µM | RIS (Rattus norvegicus [4]): 57.7%

O=S1(=O)NCN(C2CCCCC2)c2ccncc21
EC2x [1]: > 1000 µM | EC5X [2]: > 1000 µM

O=S1(=O)NCN(CC(F)(F)F)c2ccncc21
EC2x [1]: 110 µM | EC5X [2]: 215 µM

CC1=NS(=O)(=O)c2cnccc2N1C(C)C
EC2x [1]: 500 µM | EC5X [2]: 1200 µM

CC1Nc2cccnc2S(=O)(=O)N1 (centres undefined)
logD [3]: -0.2 | EC2x [1]: 114 µM | EC5X [2]: 270 µM | D50 (Rattus norvegicus [5]): 100 µM | A50 (Rattus norvegicus [6]): 154 µM | RIS (Rattus norvegicus [4]): 81% | Ratio [7]: 0.65

O=S1(=O)NC(c2ccccc2)Nc2ccncc21 (centres undefined)
EC2x [1]: > 1000 µM | EC5X [2]: > 1000 µM

CN1CNS(=O)(=O)c2cnccc21
EC2x [1]: 63 µM | EC5X [2]: 283 µM | D50 (Rattus norvegicus [5]): 130 µM | A50 (Rattus norvegicus [6]): 216 µM | RIS (Rattus norvegicus [4]): 95.8% | Ratio [7]: 0.6
